What was measured:
other cancer cells = experiment: Binding activity to other cancer cells (average over non-ovarian lines)
Procedure: (§1) 10 ng/mL of the peptide SEQ ID NO:1 of the present invention was used to examine the binding activity to different cancer cells, including pancreatic cancer cell line (BxPC3), colon cancer cell line (HCT8), cervical cancer cell line (HeLa), and liver cancer cell line (HepG2).

ovarian cancer cells = experiment: Capturing test with peptide-conjugated magnetic beads, microscopic observation; format: binding; details: 10^5 ovarian cancer cells
Procedure: (A) magnetic beads without peptide conjugation; (B) magnetic beads conjugated to 10 μg/mL of peptide; (C) magnetic beads conjugated to 10 ng/mL of peptide; (D) magnetic beads conjugated to 10 ρg/mL of peptide.
Different concentrations of the peptide of the present invention were conjugated to magnetic beads, wherein said concentrations are 10 μg/mL, 10 ng/mL, and 10 ρg/mL. The capturing test was performed using 10^5 ovarian cancer cells.

[1] = system: liver cancer cell line (HepG2); experiment: Binding activity (connectivity) of peptide-conjugated magnetic beads to cancer cells; details: 10 ng/mL peptide
Procedure: (§2) Other cell lines were used in the embodiments of the present invention including pancreatic cancer cell line (BxPC3), colon cancer cell line (HCT8), cervical cancer cell line (HeLa), and liver cancer cell line (HepG2).
as §1

[2] = system: cervical cancer cell line (HeLa); experiment: as above; details: 10 ng/mL peptide
Procedure: as §2, §1

[3] = system: colon cancer cell line (HCT8); experiment: as above; details: 10 ng/mL peptide
Procedure: as §2, §1

[4] = system: pancreatic cancer cell line (BxPC3); experiment: as above; details: 10 ng/mL peptide
Procedure: as §2, §1

[5] = system: BG1 ovarian cancer cell line; experiment: as above; set-up: species or system Human; details: 10 ng/mL peptide
Procedure: Human ovarian cancer cell line, BG1, was used. BG1 was cultured in DMEM/F12 medium containing 10% Fetal Bovine Serum (FBS). Other conditions of the culture are 37° C. and 5% CO2 in moisture atmosphere.
as §1

## N′-MPHPTKNFDLYV-C′ [peptide of the present invention]
Other cancer cells; 10 ng/mL peptide, average of non-ovarian cancer cell lines
  average connectivity to other cancer cells: about 20%
Other cancer cells; pancreatic, colorectal, cervical or liver cancer
  binding activity to other cancers: negligible binding activity
Ovarian cancer cells; peptide 10 μg/mL, 10 ng/mL and 10 ρg/mL conjugated to magnetic beads
  connection to ovarian cancer cells under microscopic observation: able to connect to ovarian cancer cells
Ovarian cancer cells; peptide conjugated to magnetic beads
  peptide concentration required to efficiently capture ovarian cancer cells: 10 ρg/mL
[1]
  Connectivity (%): 15.77 ± 5.25%
[2]
  Connectivity (%): 26.02 ± 2.01%
[3]
  Connectivity (%): 22.37 ± 1.89%
[4]
  Connectivity (%): 12.89 ± 0.21%
[5]
  Connectivity (%): about 80%
[5]; listed as peptide
  Connectivity (%): more than 80%
[5]; listed as peptide of present invention
  Connectivity (%): 80.38 ± 2.69%
